Data: ChEMBL document CHEMBL2429826, “Design, synthesis, and evaluation of prodrugs of ertapenem” (ACS Med Chem Lett, 2013)

Tests used:
[1] = AUC (0 to 8 hrs) in Sprague-Dawley rat at 1 mg/kg, iv; type: ADME, organism-based; design: time < 8 hr, dose 1 mg/kg, route intravenous; conditions: plasma
[2] = AUC (0 to 8 hrs) in Beagle dog at 1 mg/kg, iv; type: ADME, organism-based, Canis lupus familiaris; design: time < 8 hr, dose 1 mg/kg, route intravenous; conditions: plasma
[3] = Oral bioavailability in Sprague-Dawley rat at 10 mg/kg; type: ADME, organism-based; conditions: in vivo
[4] = Apparent permeability of the compound in pig LLC-PK1 cells
[5] = AUC (0 to 8 hrs) in Sprague-Dawley rat at 10 mg/kg, po; type: ADME, organism-based; design: time < 8 hr, dose 10 mg/kg, route oral; conditions: plasma
[6] = AUC (0 to 8 hrs) in Sprague-Dawley rat at 10 mg/kg, ID administered as infusion; type: ADME, organism-based; design: time < 8 hr, dose 10 mg/kg, route intraduodenal; conditions: plasma
Canis familiaris [7] = test: AUC (0 to 8 hrs) in Beagle dog assessed as ertapenem at 10 mg/kg, ID administered as infusion; type: ADME, organism-based, Canis lupus familiaris, Plasma; design: time < 8 hr, dose 10 mg/kg, route intraduodenal; conditions: in vivo, other
Canis familiaris [8] = test: Bioavailability in Beagle dog assessed as ertapenem at 10 mg/kg, ID administered as infusion; type: ADME, organism-based, Canis lupus familiaris; conditions: in vivo, other
Canis familiaris [9] = test: AUC (0 to 8 hrs) in Beagle dog assessed as (4R,5S,6S)-3-((3S,5S)-5-(3-(ethoxycarbonyl)phenylcarbamoyl)pyrrolidin-3-ylthio)-6-((R)-1-hydroxyethyl)-4-methyl-7-oxo-1-azabicyclo[3.2.0]hept-2-ene-2-carboxylic acid at 10 mg/kg, ID administered as infusion; type: ADME, organism-based, Canis lupus familiaris, Plasma; design: time < 8 hr, dose 10 mg/kg, route intraduodenal; conditions: in vivo, other
Rattus norvegicus [10] = test: AUC (0 to 8 hrs) in Sprague-Dawley rat assessed as (4R,5S,6S)-3-((3S,5S)-5-(3-(ethoxycarbonyl)phenylcarbamoyl)pyrrolidin-3-ylthio)-6-((R)-1-hydroxyethyl)-4-methyl-7-oxo-1-azabicyclo[3.2.0]hept-2-ene-2-carboxylic acid at 10 mg/kg, ID administered as infusion; type: ADME, organism-based, Plasma; design: time < 8 hr, dose 10 mg/kg, route intraduodenal; conditions: in vivo, other, BLD = below limit of detection
Rattus norvegicus [11] = test: AUC (0 to 8 hrs) in Sprague-Dawley rat assessed as ertapenem at 10 mg/kg, ID administered as infusion; type: ADME, organism-based, Plasma; design: time < 8 hr, dose 10 mg/kg, route intraduodenal; conditions: in vivo, other
[12] = Metabolic stability in rat plasma assessed as compound remaining at 50 uM after 60 mins by LC-MS/MS analysis; type: ADME, cell-free; conditions: read-out: Stability
[13] = Metabolic stability in dog plasma assessed as compound remaining at 50 uM after 60 mins by LC-MS/MS analysis; type: ADME, cell-free, Canis lupus familiaris; conditions: read-out: Stability
Rattus norvegicus [14] = test: Bioavailability in Sprague-Dawley rat assessed as ertapenem at 10 mg/kg, ID administered as infusion; type: ADME, organism-based; conditions: in vivo, other
[15] = Metabolic stability in human plasma assessed as compound remaining at 50 uM after 60 mins by LC-MS/MS analysis; type: ADME, cell-free; conditions: read-out: Stability
Canis familiaris [16] = test: AUC (0 to 8 hrs) in Beagle dog assessed as 3-((2S,4S)-4-((4R,5S,6S)-2-(ethoxycarbonyl)-6-((R)-1-hydroxyethyl)-4-methyl-7-oxo-1-azabicyclo[3.2.0]hept-2-en-3-ylthio)pyrrolidine-2-carboxamido)benzoic acid at 10 mg/kg, ID administered as infusion; type: ADME, organism-based, Canis lupus familiaris, Plasma; design: time < 8 hr, dose 10 mg/kg, route intraduodenal; conditions: in vivo, other
Rattus norvegicus [17] = test: AUC (0 to 8 hrs) in Sprague-Dawley rat assessed as 3-((2S,4S)-4-((4R,5S,6S)-2-(ethoxycarbonyl)-6-((R)-1-hydroxyethyl)-4-methyl-7-oxo-1-azabicyclo[3.2.0]hept-2-en-3-ylthio)pyrrolidine-2-carboxamido)benzoic acid at 10 mg/kg, ID administered as infusion; type: ADME, organism-based, Plasma; design: time < 8 hr, dose 10 mg/kg, route intraduodenal; conditions: in vivo, other, BLD = below limit of detection
[18] = Metabolic stability in monkey plasma assessed as compound remaining at 50 uM after 60 mins by LC-MS/MS analysis; type: ADME, cell-free, Macaca mulatta; conditions: rhesus monkey, read-out: Stability
Rattus norvegicus [19] = test: AUC (0 to 8 hrs) in Sprague-Dawley rat assessed as ertapenem at 4.4 mg/kg, ID administered as infusion; type: ADME, organism-based, Plasma; design: time < 8 hr, dose 4.4 mg/kg, route intraduodenal; conditions: in vivo, other
Rattus norvegicus [20] = test: AUC (0 to 8 hrs) in Sprague-Dawley rat assessed as (4R,5S,6S)-3-((3S,5S)-5-(3-(ethoxycarbonyl)phenylcarbamoyl)pyrrolidin-3-ylthio)-6-((R)-1-hydroxyethyl)-4-methyl-7-oxo-1-azabicyclo[3.2.0]hept-2-ene-2-carboxylic acid at 4.4 mg/kg, ID administered as infusion; type: ADME, organism-based, Plasma; design: time < 8 hr, dose 4.4 mg/kg, route intraduodenal; conditions: in vivo, other
Rattus norvegicus [21] = test: Bioavailability in Sprague-Dawley rat assessed as ertapenem at 4.4 mg/kg, ID administered as infusion; type: ADME, organism-based; conditions: in vivo, other
Rattus norvegicus [22] = test: AUC (0 to 8 hrs) in Sprague-Dawley rat assessed as 3-((2S,4S)-4-((4R,5S,6S)-2-(ethoxycarbonyl)-6-((R)-1-hydroxyethyl)-4-methyl-7-oxo-1-azabicyclo[3.2.0]hept-2-en-3-ylthio)pyrrolidine-2-carboxamido)benzoic acid at 4.4 mg/kg, ID administered as infusion; type: ADME, organism-based, Plasma; design: time < 8 hr, dose 4.4 mg/kg, route intraduodenal; conditions: in vivo, other
[23] = Drug metabolism in dog hepatocytes assessed as tebipenem level after 15 mins; type: ADME, cell-based, Canis lupus familiaris, Hepatocyte; conditions: 0.25 h
Hepatocyte [24] = test: Drug metabolism in human hepatocytes assessed as tebipenem level after 15 mins; type: ADME, cell-based; conditions: 0.25 h
Liver microsomes [25] = test: Drug metabolism in rat liver microsomes assessed as tebipenem level after 15 mins; type: ADME, Microsome; conditions: 0.25 h
[26] = Drug metabolism in monkey hepatocytes assessed as tebipenem level after 15 mins; type: ADME, cell-based, Macaca mulatta, Hepatocyte; conditions: rhesus monkey, 0.25 h
Liver microsomes [27] = test: Drug metabolism in human liver microsomes assessed as tebipenem level after 15 mins; type: ADME, Microsome; conditions: 0.25 h
[28] = Drug metabolism in dog liver microsomes assessed as tebipenem level after 15 mins; type: ADME, Canis lupus familiaris, Microsome; conditions: 0.25 h
Hepatocyte [29] = test: Drug metabolism in rat hepatocytes assessed as tebipenem level after 15 mins; type: ADME, cell-based; conditions: 0.25 h
[30] = Drug metabolism in monkey liver microsomes assessed as tebipenem level after 15 mins; type: ADME, Macaca mulatta, Microsome; conditions: rhesus monkey, 0.25 h

Row | SMILES | Papp [4] [×10⁻⁶ cm/s] | AUC (Canis familiaris [7]) [µM·h] | F (Canis familiaris [8]) [%] | remaining at 1 h, 50 µM [12] [%] | remaining at 1 h, 50 µM [13] [%] | remaining at 1 h, 50 µM [15] [%] | remaining at 1 h, 50 µM [18] [%] | other results
1 | C[C@@H](O)[C@H]1C(=O)N2C(C(=O)O)=C(S[C@@H]3CN[C@H](C(=O)Nc4cccc(C(=O)O)c4)C3)[C@H](C)[C@H]12 | 0.5 | – | – | – | – | – | – | AUC(0-t) at 8 h [1]: 7.84 µM·h; AUC(0-t) at 8 h [2]: 8.9 µM·h; bioavailability [3]: 0.53%; AUC(0-t) at 8 h [5]: 0.39 µM·h; AUC(0-t) at 8 h [6]: 0.48 µM·h
2 | C[C@@H](O)[C@H]1C(=O)N2C(C(=O)OCOC(=O)C(C)(C)C)=C(S[C@@H]3CN[C@H](C(=O)Nc4cccc(C(=O)OCOC(=O)C(C)(C)C)c4)C3)[C@H](C)[C@H]12 | – | 1.81 | 3 | 2 | 37 | 36 | – | AUC (Canis familiaris [9]; BLD = below limit of detection): BLD; AUC (Rattus norvegicus [10]): BLD; AUC (Rattus norvegicus [11]): 0.2 µM·h; F (Rattus norvegicus [14]): 0.37%; AUC (Canis familiaris [16]): 0.04 µM·h; AUC (Rattus norvegicus [17]): BLD
3 | C[C@@H](O)[C@H]1C(=O)N2C3=C(S[C@@H]4CN[C@@H](C4)C(=O)Nc4cccc(c4)C(=O)OCCCOC3=O)[C@H](C)[C@H]12 | – | 0.44 | 0.53 | 0 | 79 | 17 | 49 | –
4 | C[C@@H](O)[C@H]1C(=O)N2C(C(=O)OCOC(=O)C(C)(C)C)=C(SC3CN(C4=NCCS4)C3)[C@H](C)[C@H]12 [TEBIPENEM PIVOXIL] | – | – | – | 0 | 25 | 0 | 0 | Drug metabolism [23]: Active; Drug metabolism (Hepatocyte [24]): Active; Drug metabolism (Liver microsomes [25]): Active; Drug metabolism [26]: Active; Drug metabolism (Liver microsomes [27]): Active; Drug metabolism [28]: Active; Drug metabolism (Hepatocyte [29]): Active; Drug metabolism [30]: Active
5 | C[C@@H](O)[C@H]1C(=O)N2C(C(=O)O)=C(SC3CN(C4=NCCS4)C3)[C@H](C)[C@H]12 [TEBIPENEM] | 0.7 | – | – | – | – | – | – | –

Second part, led by results:

Row | Papp [4] [×10⁻⁶ cm/s] | AUC (Canis familiaris [7]) [µM·h] | F (Canis familiaris [8]) [%] | remaining at 1 h, 50 µM [12] [%] | remaining at 1 h, 50 µM [13] [%] | remaining at 1 h, 50 µM [15] [%] | remaining at 1 h, 50 µM [18] [%] | SMILES | other results
6 | – | – | – | 1 | 3 | 1 | 2 | Cc1oc(=O)oc1COC(=O)C1=C(S[C@@H]2CN[C@H](C(=O)Nc3cccc(C(=O)OCc4oc(=O)oc4C)c3)C2)[C@H](C)[C@@H]2[C@@H]([C@@H](C)O)C(=O)N12 | AUC (Rattus norvegicus [11]): 0.3 µM·h; F (Rattus norvegicus [14]): 0.77%
7 | 13 | 14.3 | 18.1 | 0 | 75 | 5 | 77 | CCOC(=O)C1=C(S[C@@H]2CN[C@H](C(=O)Nc3cccc(C(=O)OCC)c3)C2)[C@H](C)[C@@H]2[C@@H]([C@@H](C)O)C(=O)N12 | AUC (Rattus norvegicus [19]): 1.54 µM·h; AUC (Canis familiaris [9]): 3.34 µM·h; AUC (Rattus norvegicus [20]): 0.42 µM·h; F (Rattus norvegicus [21]): 4.98%; AUC (Rattus norvegicus [22]): 0.07 µM·h; AUC (Canis familiaris [16]): 2.17 µM·h
